From PubChem BioAssay AID743068 (The Scripps Research Institute Molecular Screening Center, 2013)

test system: T. brucei; test: growth inhibition of T. brucei parasites, late-stage follow-up, T. brucei MetRS inhibitor project, absorbance, round 1 (AID 743068); conditions: T. brucei Lister 427 bloodstream forms, AlamarBlue fluorescence, 48 h

Compound | IC50 [µM]
COc1ccc(NC(=O)CSc2nnc3c4cc(C)ccc4n(C)c3n2)cc1 | > 10
CCN(CC)C(=O)C(=O)c1cn(CC(=O)Nc2cccc(C(F)(F)F)c2)c2ccccc12 | 2.55
O=C(NCCc1nc2ccccc2[nH]1)c1ccc(Cl)cc1 | > 10
COc1ccc(CCN(C(=O)c2cccc(F)c2)C2CC(=O)N(c3ccc(Br)cc3)C2=O)cc1 (stereo not given) | > 10
O=C(NCCc1nc2ccccc2[nH]1)c1ccc(Cl)c(Cl)c1 | > 10
O=C(Cn1cc(C(=O)c2ccco2)c2ccccc21)Nc1cccc(C(F)(F)F)c1 | 8.18
Cc1ccc(C(=O)NCCc2nc3ccccc3[nH]2)cc1C | > 10
O=C(Cn1cc(C(=O)C2CC2)c2ccccc21)Nc1cccc(C(F)(F)F)c1 | 2.62
CCN(CC)C(=O)C(=O)c1cn(CC(=O)N2CCCc3ccccc32)c2ccccc12 | > 10
CCCCn1c(CCNC(=O)c2ccc(F)cc2)nc2ccccc21 | > 10
Cc1cccc2[nH]c(C3CCCN(C(=O)c4cccc5cccnc45)C3)nc12 (stereo not given) | > 10
CC(=O)c1cn(CC(=O)Nc2cccc(C(F)(F)F)c2)c2ccccc12 | > 10
CCN(CC)C(=O)C(=O)c1cn(CC(=O)Nc2cccc(OC)c2)c2ccccc12 | > 10
CCc1ccc2c(c1)c1nnc(SCC(=O)Nc3ccc4c(c3)OCO4)nc1n2C | > 10
O=C(NCCc1nc2ccccc2[nH]1)c1ccc(Cl)cc1Cl | > 10
O=C(NCc1nc2ccccc2[nH]1)C1=C[C@H](c2ccccc2)C[C@H](OCc2ccc(CO)cc2)O1 | > 10
Cc1cccc2[nH]c(CCN(C)C(=O)c3cccc(C4CCNC4)c3)nc12 (stereo not given) | > 10
O=C(Cn1cc(C(=O)C(=O)N2CCOCC2)c2ccccc21)NCc1ccccc1 | > 10
COc1ccccc1NC(=O)CSc1nnc2c(n1)[nH]c1ccc(C)cc12 | > 10
O=C(NCc1nc2ccccc2[nH]1)C1=C[C@H](c2ccc3c(c2)OCO3)C[C@H](OCCCCO)O1 | > 10
O=C(CSc1nnc2c(n1)[nH]c1ccc(Br)cc12)NCc1ccccc1 | > 10
COc1ccc(CCN(C(=S)Nc2ccccc2)C2CC(=O)N(c3ccc(Cl)cc3)C2=O)cc1 (stereo not given) | 2.1
CC(=O)N(CCc1ccccc1)C1CC(=O)N(c2ccc(Br)cc2)C1=O (stereo not given) | > 10
O=C(Cn1cc(C(=O)c2ccccc2)c2ccccc21)Nc1cccc(C(F)(F)F)c1 | 4.2
COCCc1nc2ccc(C(=O)NCCc3nc4ccc(OC)cc4[nH]3)cc2o1 | > 10
CC(C)(C)[C@H]1C=C(C(=O)NCc2nc3ccccc3[nH]2)O[C@@H](OCc2ccc(CO)cc2)C1 | > 10
COc1ccc(NC(=O)C2CC(=O)n3c(nc4ccccc43)N2)cc1 (stereo not given) | > 10
CCO[C@H]1OC(C(=O)NCc2nc3ccccc3[nH]2)=C[C@@H](c2ccc(Br)cc2)[C@@H]1CCCO | > 10

Compound | IC50 [µM]
Cc1ccc(C(=O)NCCc2nc3ccccc3[nH]2)cc1[N+](=O)[O-] | > 10
O=C(Cn1cc(C(=O)COc2ccccc2)c2ccccc21)Nc1cccc(C(F)(F)F)c1 | > 10
COc1ccccc1NC(=O)Cn1cc(C(=O)C(=O)N2CCOCC2)c2ccccc21 | > 10
CCc1ccc2[nH]c3nc(SCC(=O)NCc4cccc(OC)c4)nnc3c2c1 | > 10
CCC(=O)c1cn(CC(=O)Nc2cccc(C(F)(F)F)c2)c2ccccc12 | > 10
Cc1ccc2[nH]c3nc(SCC(=O)Nc4ccc(C(F)(F)F)cc4)nnc3c2c1 | > 10
O=C(NCc1nc2ccccc2[nH]1)C1=C[C@@H](C2CC2)C[C@@H](OCc2ccc(CO)cc2)O1 | > 10
CCN(C(=O)Cn1cc(C(=O)C(=O)N2CCOCC2)c2ccccc21)c1ccccc1 | > 10
CCN(CC)C(=O)C(=O)c1cn(CC(=O)N(CC)c2ccccc2)c2ccccc12 | > 10
Cc1cccc(C(=O)NCCc2nc3ccccc3n2CCOc2ccccc2)c1 | > 10
Cc1cc2cc(C(=O)N3CCCC(c4nc5ccccc5[nH]4)C3)ccc2o1 (stereo not given) | > 10
CCN(CC)C(=O)C(=O)c1cn(CC(=O)Nc2ccccc2OC)c2ccccc12 | > 10
O=C(C(=O)N1CCOCC1)c1cn(CC(=O)N2CCCc3ccccc32)c2ccccc12 | > 10
O=C(Cn1cc(C(=O)C(=O)N2CCOCC2)c2ccccc21)NCC1CCCO1 (stereo not given) | > 10
CC(C)c1nc2ccc(C(=O)N(C)CCc3nc4ccc(F)cc4[nH]3)cc2o1 | > 10
Cc1cccc(NC(=O)C2CC(=O)n3c(nc4ccccc43)N2)c1 (stereo not given) | > 10
O=C(NCCc1nc2ccccc2[nH]1)c1c(F)cccc1F | > 10
O=C(CSC1CC(=O)N(c2cccc(Cl)c2)C1=O)Nc1ccc(Br)cc1 (stereo not given) | > 10
O=C1CC(NCCc2ccccc2)C(=O)N1c1ccc(Br)cc1 (stereo not given) | > 10
CC1Cc2ccccc2N1C(=O)Cn1cc(C(=O)C(=O)N2CCOCC2)c2ccccc21 (stereo not given) | > 10
O=C(Cn1cc(C(=O)C(=O)N2CCCC2)c2ccccc21)Nc1ccccc1 | > 10
COc1cccc(NC(=O)C2CC(=O)n3c(nc4ccccc43)N2)c1 (stereo not given) | > 10
CNC(=S)N(CCc1ccccc1)C1CC(=O)N(c2ccc(Br)cc2)C1=O (stereo not given) | 3.44
Cn1c(CCNC(=O)c2ccc(Cl)cc2)nc2ccccc21 | > 10
CCN(CCc1nc2ccc(C)cc2[nH]1)C(=O)c1ccc2ncccc2c1 | > 10
CC(=O)N(CCc1ccccc1)C1CC(=O)N(c2ccc(Cl)cc2)C1=O (stereo not given) | > 10
Cc1ccc(CNC(=O)CSc2nnc3c(n2)[nH]c2ccc(C)cc23)cc1 | > 10
